The source of these data is US7339023B2, “Partial peptide mimetics and methods” (Regents of the University of Minnesota, priority 2002, dated 2008).

In test [1] the test system is bFGF-stimulated human umbilical vascular EC (HUVEC). The test is described as follows: EC proliferation measurement, [3H]-thymidine incorporation assay. It counts as cell-based. The following applies: for EC Proliferation % Inhibition at 25 μM: bFGF-stimulated HUVEC; for IC50: bFGF-stimulated (10 ng/ml) HUVEC, 3H-thymidine incorporation, 3 days. The method, then: Human umbilical vein derived EC (HUVEC) were harvested from normal human umbilical cords by perfusion with 0.125% trypsin/EDTA. Harvested HUVECs were cultured in gelatin coated tissue culture flasks and subcultured 1:3 once a week in culture medium (RPMI-1640 with 20% human serum (HS), supplemented with 2 mM glutamine and 100 U/ml penicillin and 0.1 mg/ml streptomycin). Bovine capillary EC (BCE) were kindly provided by Dr. M. Furie (State University of New York, Stony Brook, USA) and were cultured in fibronectin coated tissue culture flasks in RPMI-1640 medium containing 10% FCS, glutamine and antibiotics.
EC proliferation was measured using a [^3H]-thymidine incorporation assay. Proliferation of bFGF-stimulated (10 nanogram per milliliter (ng/ml)) human umbilical vascular EC (HUVEC) cultures was measured by quantification of ^3H-thymidine incorporation. Proliferation is expressed as mean counts per minute (cpm) of quadruplicate cultures in three independent experiments (±SEM). EC were seeded at 5000 cells/well in flat-bottomed tissue culture plates and grown for 3 days in the absence or presence of regulators, in culture medium. During the last 6 hours of the assay, the culture was pulsed with 0.5 μCi [methyl-^3H]-thymidine/well. Human umbilical vein derived EC (HUVEC) were harvested from normal human umbilical cords by perfusion with 0.125% trypsin/EDTA. Harvested HUVECs were cultured in gelatin coated tissue culture flasks and subcultured 1:3 once a week in culture medium (RPMI-1640 with 20% human serum (HS), supplemented with 2 mM glutamine and 100 U/ml penicillin and 0.1 mg/ml streptomycin).
A general note: Dividing cells build labelled thymidine or BrdU into new DNA.

The subject of the next test is bovine EC (BCE). The test is described as follows: In vitro angiogenesis assay, collagen gel-based sprout formation. Format: cell-based. Set-up: key to % Sprouting: —: No effect on the assay. The following applies: for % Sprouting: BCE on cytodex-3 beads in collagen gel, 20 ng/mL bFGF, 24 hours, * = significant inhibition (p < 0.03); for Sprouting in collagen gel-based sprout formation assay: versus control showing numerous sprouts, data not shown. The method, then:
Sprouting and tube formation of bovine EC (BCE) were studied using cytodex-3 beads overgrown with BCE in a 3-dimensional collagen gel (vitrogen-100, Collagen Corp., Fremont, Calif., USA) as described in D. Van der Schaft et al., Blood, 96,176-181 (2000). Following gelation, culture medium containing 20 ng/mL bFGF, with or without […] or DBF analogs, was applied on top of the gel. After 24 hours of cell culture at 37° C., photographs were made (not shown). The amount of sprouting in each well (i.e., the total length of the sprouts) was quantified by the computer program NIH image. To quantify differences in sprouting and tube formation, statistical analysis was performed using the Mann-Whitney U test.

The subject of test [2] is MA148 human ovarian carcinoma. The test is described as follows: MA148 xenograft ovarian carcinoma tumor model in athymic mice, tumor volume. The following applies: for Inhibition of tumor growth ten days post-treatment: at sacrifice.
Procedure: In all studies, female athymic nude mice (nu/nu, 5-6 weeks old) were used. These mice were purchased from the National Cancer Institute and allowed to acclimatize to local conditions for at least one week. Animals were given water and standard chow ad libitum, and were kept on a 12-hour light/dark cycle. […] Compounds were diluted in 100 mM SDS and administered using osmotic mini-pumps (Durect, Cupertino, Calif.). Exponentially growing MA148 human ovarian carcinoma cells, kindly provided by Prof. Ramakrishnan (R. P. Dings et al., Cancer Res., 63, 382-385 (2003)) were cultured in RPMI 1640 medium (Life Technologies, Grand Island, N.Y.). This medium was supplemented with 10% fetal bovine serum and 1% penicillin/streptomycin (Cellgro, Mediatech, Washington, D.C.) at 37° C. and 5% CO2. One hundred microliters (100 μL) of this tumor cell suspension (2×10^7 cells/ml) was then injected subcutaneously into the right flank of each mouse. Pumps were implanted into the left flank of mice for subcutaneous administration of compound over a 28-day treatment span.
Two variants of this model were used: prevention and intervention. For the prevention variant, treatment was initiated at the time of inoculation with MA148 cells. For the intervention variant, tumors were allowed to grow to an average size of 50 mm^3 (usually day 7 post inoculation) before treatment was initiated. With either variant, animals were randomized prior to the initiation of treatment. Treatment was administered via osmotic mini-pumps (Durect, Cupertino, Calif.), which were implanted subcutaneously in the left flank of mice. […] In each study, control groups of animals were administered either PBS or PBS containing human serum albumin.
Tumor volume was determined by measuring the diameters of tumors using calipers (Scienceware, Pequannock, N.J.) using the equation for the volume of a spheroid: (a^2×b×π)/6, where ‘a’ is the width and ‘b’ the length of the tumor. Measurements were performed two or three times per week. At the conclusion of an experiment, tumor weights were also taken following excision of the tumors from euthanized animals.
Test [3] has as its system MA148 human ovarian carcinoma tumors. The test is described as follows: Immunohistochemistry of tumor sections (CD31 microvessel density, PCNA proliferation, TUNEL apoptosis). The following applies: for Vessel density relative to control: anti-CD31 staining of tumor cross-sections; for End Points (mean number of vessel end points) / Branch Points (mean number of vessel branch points/nodes per image) / Proliferation (PCNA-staining, white pixels per field) / Vessel Density (CD31-staining, white pixels per field) / Vessel Length (mean total vessel length per image): tumors of treated mice, ± standard error; for End Points (mean number of vessel end points): after skeletonization. It counts as in vivo, mice. The method, then:
Immunohistochemistry was used to assess microvessel density and the extent of total cell apoptosis. Tumor tissue was embedded in tissue freezing medium (Miles Inc, Elkart, Ind.) and shock frozen in liquid nitrogen. […] sections of tissue were prepared for immunohistochemical analysis. For this, tissue sections were brought to room temperature, air dried overnight, and then fixed in acetone for 10 minutes. Slides were allowed to air dry for at least 30 minutes and were washed three times for 5 minutes each in phosphate-buffered saline (PBS, pH 7.4). Samples were then blocked with PBS containing 0.1% bovine serum albumin and 3% human serum albumin for at least 30 minutes at room temperature in a humidified box. Samples were subsequently incubated with phycoerytrin (PE)-conjugated monoclonal antibody to CD31 (PECAM-1) in a 1:50 dilution (Pharmigen, San Diego, Calif.) to stain for microvessel density. After 1-hour incubation at room temperature, slides were washed with PBS and immediately imaged using an Olympus BX-60 fluorescence microscope at 200× magnification.
To assess the extent of total cell apoptosis, tissue sections were stained by using the TUNEL (terminal deoxyribonucleotidyl transferase-mediated dUTP-nick-end labeling) assay, which was performed according to the manufacturer's instructions (in situ cell death detection kit, fluorescein; TUNEL, Roche). Digital images were stored and processed using Adobe Photoshop (Adobe Inc., Mountain View Calif.).
Quantification of microvessel density, the rate of proliferation and total cell apoptosis were determined as described earlier (R. Wild et al., Microvasc. Res., 59, 368-376 (2000)). Statistical analysis was performed using the Student's t test.

A value given as a limit tells only on which side of the number the result lay.

What is called IC50 is the midpoint of a concentration-inhibition curve.

As for ANIKLSVQMKL-[DBF]-IIVKLND [11DBF7], in test [1], the “EC Proliferation % Inhibition at 25 μM” value turned out to be 92% and the IC50 was determined as 12 µM. In addition, in the test on bovine EC (BCE), the “% Sprouting” value is listed as 23 ± 10%* and the “Sprouting in collagen gel-based sprout formation assay” value is “highly reduced sprouting”. In addition, in test [2] (intervention, day 35), the “Inhibition of tumor growth at the end of the four-week administration period (day 35)” value is on record as “about 50%”. Also, in test [2] (intervention), the “Inhibition of tumor growth ten days post-treatment” value is on record as “about 50%”. Besides, the “Reduction of tumor volume relative to control animals” value in test [2] (prevention model: treatment from time of inoculation, subcutaneous mini-pumps, 10 mg/kg/day) was “up to 90%”. Further, in test [3], the “Vessel density relative to control” value was “significantly reduced”; the “End Points (mean number of vessel end points)” value is 21.2 ± 3.3 mean pixel counts per image; the “Branch Points (mean number of vessel branch points/nodes per image)” value is reported as 3.1 ± 0.9 mean pixel counts per image; the “Proliferation (PCNA-staining, white pixels per field)” value is reported as 553 ± 75 mean pixel counts per image. Moreover, in test [3], the “Vessel Density (CD31-staining, white pixels per field)” value is reported as 2879 ± 385 mean pixel counts per image and the “Vessel Length (mean total vessel length per image)” value is given as 3.0 ± 0.6 mean pixel counts per image.
For the substance SVQMKL-[DBF]-IIVKLND [6DBF7], in test [1], the “EC Proliferation % Inhibition at 25 μM” value came to 68% and the midpoint of inhibition, the IC50, lay at 15 µM. Besides, in the test with bovine EC (BCE), the “Effect on tube formation” value is “significant inhibitory effect on tube formation”, the “% Sprouting” value is 60 ± 12%* and the “Sprouting in collagen gel-based sprout formation assay” value is reported as “highly reduced sprouting”. For the same substance, the “Inhibition of tumor growth ten days post-treatment” value in test [2] (intervention) is given as “about 50%”. Further, the “Number of apoptotic tumor cells” value in test [3] (TUNEL, control 311±103) amounted to 851±162. In addition, in test [3], the “Vessel density relative to control” value is “significantly reduced”; the “End Points (mean number of vessel end points)” value is on record as 21.7 ± 2.6 mean pixel counts per image; the “Branch Points (mean number of vessel branch points/nodes per image)” value is on record as 2.3 ± 1.1 mean pixel counts per image; the “Proliferation (PCNA-staining, white pixels per field)” value is 501 ± 68 mean pixel counts per image. Besides, in test [3], the “Vessel Density (CD31-staining, white pixels per field)” value is listed as 2213 ± 256 mean pixel counts per image and the “Vessel Length (mean total vessel length per image)” value is recorded as 2.5 ± 0.4 mean pixel counts per image.
As for MKL-[DBF]-IIVKLND [3DBF7], in test [1], the “EC Proliferation % Inhibition at 25 μM” value is recorded as 0% and the IC50 was above 25 µM. In addition, the “% Sprouting” value in the test on bovine EC (BCE) came out at 84 ± 30%.
Regarding SVQMKL-[DBF]-I [6DBF1], in test [1], the IC50 was 76.1 ± 10.9 µM.
On the same count and under the same terms, for SVQMKL-[DBF]-IIVK [6DBF4] the value was above 25 µM.
Take L-[DBF]-IIVKLND [1DBF7]: in test [1], the “EC Proliferation % Inhibition at 25 μM” value was determined as 0% and the IC50 was above 25 µM. For the same substance, in the test with bovine EC (BCE), the “% Sprouting” value was “—”.
For ANIKLSVQMKL-[DBF]-IIVKLN [11DBF6], in test [1], inhibition was half-maximal at 22 µM (IC50).
As for SVQMKL-[DBF]-IIV [6DBF3], the IC50 in test [1] was above 25 µM.
Regarding ANIKLSVQMKL-[DBF]-I [11DBF1], half-maximal inhibition in test [1] (IC50) required 23 ± 5 µM.
Take QMKL-[DBF]-IIVKLND [4DBF7]: in test [1], the “EC Proliferation % Inhibition at 25 μM” value was 46% and the IC50 came to 25 µM. Also, the “% Sprouting” value in the test with bovine EC (BCE) was found to be 99 ± 5%.
Take ANIKLSVQMKL-[DBF]-IIVK [11DBF4]: half-maximal inhibition in test [1] (IC50) was put at 35 µM.
With IKLSVQMKL-[DBF]-IIVKLND [9DBF7], in test [1], the “EC Proliferation % Inhibition at 25 μM” value worked out at 57% and the IC50 was found to be 20 µM. For the same substance, the “% Sprouting” value in the test with bovine EC (BCE) is reported as 76 ± 40%*.
In test [1], SVQMKL-[DBF]-IIVKLN [6DBF6] showed an IC50 of 42 µM.
Consider NIKLSVQMKL-[DBF]-IIVKLND [10DBF7], for which, in test [1], the “EC Proliferation % Inhibition at 25 μM” value was 69% and the IC50 is 12 µM. Moreover, in the test with bovine EC (BCE), the “% Sprouting” value was determined as 57 ± 17.5%*.
The substance SVQMKL-[DBF]-II [6DBF2] had a concentration for half-maximal inhibition (IC50) in test [1] above 25 µM.
